Key:
Assay type in all cases: binding
[1] = molecular target: T1, Arabidopsis TGD2, DsRed-TGD2C with deletion of the 25-mer minimal domain (DR-Δ25, residues 201-225 deleted) (Arabidopsis thaliana, UniProt Q9LTR2, DEL201-225); test: Liposome-association assay, minimal domain deletion DR-Δ25
T1 construct: made in house; host or cells: Escherichia coli BL21 (DE3)
Description: (§1) The liposome association assay was performed as previously reported. (31). Briefly, lipids (dioleoyl-phosphatidylcholine, DOPC or dioleoyl-PA, DOPA) were incubated in TBS (50 mM Tris-HCl, pH 7; 0.1 M NaCl) at 37° C. for an hour followed by vigorous vortexing for 5 min. The liposomes were precipitated at 20,000 g and washed twice with ice-cold TBS.
(§2) Liposomes (200 μg) were mixed with purified DsRed-TGD2 fusion protein and TBS to make a final 100 μL solution. The mixture was incubated at 30° C. for 30 min and washed twice with ice-cold TBS by centrifugation at 20,000 g at 4° C. The liposome pellet mixed with sample buffer was analyzed by SDS-PAGE (28). Immuno-detection of the His-tagged protein was accomplished using the above mentioned Penta-His antibody at 1:15,000 and the anti mouse antibody at 1:75,000 dilution.
(§3) The protein band was visualized by chemiluminescent detection kit from Sigma. The autoradiography film was scanned, distinct protein bands were quantified using computer software Multi Gauge V3.0 (Fujifilm USA, Valhalla, N.Y.) and resulted data were plotted and analyzed by OriginPro8 (Origin lab corporation, Northampton, Mass.).

[2] = molecular target: Arabidopsis TGD2, DsRed-TGD2C D1 (Δ221-250, SEQ ID NO:43) (Arabidopsis thaliana, UniProt Q9LTR2, DEL221-250); test: Liposome-association assay, TGD2C D1 (Δ221-250); conditions: FIG. 3C
Chain of Arabidopsis TGD2, DsRed-TGD2C D1 (Δ221-250, SEQ ID NO:43) (Q9LTR2 other isoform, or with tags, fused parts or gaps DEL221-250): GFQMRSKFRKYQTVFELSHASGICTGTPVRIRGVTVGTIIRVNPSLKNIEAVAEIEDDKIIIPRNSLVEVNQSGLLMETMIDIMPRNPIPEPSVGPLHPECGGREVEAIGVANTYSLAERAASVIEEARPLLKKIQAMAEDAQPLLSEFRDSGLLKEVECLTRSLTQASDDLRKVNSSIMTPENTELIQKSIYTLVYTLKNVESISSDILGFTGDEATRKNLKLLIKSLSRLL
Description: as §1, §2, §3

[3] = molecular target: T2, Arabidopsis TGD2, DsRed-TGD2C T8 (residues 201-225, SEQ ID NO:12) (Arabidopsis thaliana, UniProt Q9LTR2); test: Protein-lipid overlay assay, minimal domain; conditions: FIG. 4B; compared to DR-WT
T2 sequence (Q9LTR2 201-225): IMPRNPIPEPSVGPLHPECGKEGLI
Description: Membrane lipid strips were purchased from Echelon Biosciences (Salt Lake City, Utah). The strips were first blocked with 3% bovine serum albumin in TBST (10 mM Tris-HCl, pH 8.0, 150 mM NaCl, and 0.25% Tween-20) for two hours and incubated in 0.5 μg/mL DsRed-TGD2 fusion protein solution in the blocking buffer at 4° C. overnight. The strips were washed 10 min for 3 times with TBST the next day and soaked in 3% bovine serum albumin in TBST with a Penta-His mouse monoclonal antibody (Sigma-Aldrich, St. Louis, Mo.) at 1:2,000 dilution at 4° C. overnight. The strips were washed twice with TBST and soaked in 3% bovine serum albumin in TBST with horseradish peroxidase-conjugated anti mouse antibody (Bio-Rad, Hercules, Calif.) at 1:20,000 dilution for an hour at room temperature. Following washing with TBST for 1 hour, the protein was detected by using the chemiluminescent detection system (Sigma-Aldrich).

[4] = molecular target: T3, Arabidopsis TGD4, DsRED-TGD4-His, full-length TGD4 1-479 (SEQ ID NO: 132) (Arabidopsis thaliana, UniProt Q9M903); test: Protein-lipid overlay assay, DsRED-TGD4-His; conditions: commercial phospholipid membrane, FIG. 18A
T3 sequence (Q9M903 1-479): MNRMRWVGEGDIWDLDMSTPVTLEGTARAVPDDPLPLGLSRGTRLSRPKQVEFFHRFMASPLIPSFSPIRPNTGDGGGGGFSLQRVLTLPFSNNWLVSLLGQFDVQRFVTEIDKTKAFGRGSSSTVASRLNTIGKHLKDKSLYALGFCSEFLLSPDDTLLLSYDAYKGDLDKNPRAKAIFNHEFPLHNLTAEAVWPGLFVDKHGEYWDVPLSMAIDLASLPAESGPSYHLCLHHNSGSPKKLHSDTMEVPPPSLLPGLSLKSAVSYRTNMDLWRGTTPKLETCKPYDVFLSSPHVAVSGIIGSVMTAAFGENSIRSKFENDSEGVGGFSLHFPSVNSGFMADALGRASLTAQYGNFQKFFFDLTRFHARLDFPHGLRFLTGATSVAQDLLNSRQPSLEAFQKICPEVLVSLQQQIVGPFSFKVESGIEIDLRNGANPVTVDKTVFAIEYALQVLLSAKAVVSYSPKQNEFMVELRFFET
Description: Protein-Lipid Overlay Assay:
The protein-lipid overlay assay was modified from (Awai et al., 2006, Lu and Benning, 2009). Phosphoinositol-4,5-bisphosphate PIP2) lipid strips were purchased from Echelon Biosciences (Salt Lake City, Utah). Lipids spotted onto membranes were purchased from Avanti Polar Lipids (Alabaster, Al.) as well as Larodan Fine Chemicals (Malmo, Sweden). Lipids (10 nmol) were suspended in 20 μl spotting buffer (250 μl chloroform, 500 μl methanol, 200 μl 50 mM HCl, 2 μl 1% (w/v) Ponseau S (Sigma, St. Louis, Mo.)) and spotted onto Amersham Hybond-C Extra membranes (GE Healthcare, Piscataway, N.J.) followed by drying for 1 hour in a fume hood. The lipid membranes were then blocked in 3% (w/v) bovine serum albumin (BSA) in TBST buffer (TBS with 0.25% (v/v) Tween 20) for 2 hours at room temperature. Purified DsRED-TGD4-His fusion proteins were added at 1 μg/ml final concentration and incubated overnight at 4° C. followed by washing 3 times in TBST. Lipid membranes were then incubated with 1:2000 diluted His antibody (Sigma) in blocking buffer for 2 hours at room temperature followed by 2 washes with TBST. The membranes were processed for immunoblotting as described below.

[5] = mixed PA/PC liposomes, FIGS. 5E and 5F

T1 sequence (Q9LTR2 other isoform, or with tags, fused parts or gaps DEL201-225): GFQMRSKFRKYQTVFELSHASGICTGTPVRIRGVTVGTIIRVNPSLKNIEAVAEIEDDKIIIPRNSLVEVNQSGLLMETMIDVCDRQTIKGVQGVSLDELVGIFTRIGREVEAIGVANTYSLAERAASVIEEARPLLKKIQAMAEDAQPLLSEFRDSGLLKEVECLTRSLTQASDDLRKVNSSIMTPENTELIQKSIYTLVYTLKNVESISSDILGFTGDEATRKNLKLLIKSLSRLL

CCCCCCCC/C=C\CCCCCCCC(=O)OC[C@H](COP(=O)(O)O)OC(=O)CCCCCCC/C=C\CCCCCCCC [PA, phosphatidic acid]
residual PA binding activity ([1]; PA liposomes): retains residual binding activity, albeit with significantly lower affinity
Hill number, PA binding [1, 5]: 7.3
Kd, PA binding [1, 5]: 53.47 mol %
PA binding [2]: did not seem to affect PA binding
PA binding on membrane strip [3]: binds PA on the membrane strip, with apparent lower affinity
binding to lipids on membranes [4]: specifically bind

From patent US8629251B2, “Specific detection and quantification of phosphatidic acid using an Arabidopsis trigalactosyldiacylglycerol-4 (TGD4) protein” (Board of Trustees of Michigan State University, priority 2008, dated 2014)
